Test system: rhamnolipid production of planktonic grown P. aeruginosa
Assay: Rhamnolipid concentration in cultures quantified by LC-MS
Type: cell-based
Details: for rhamnolipid content: OD=1.5 (FIG. 4)
Excerpt: Samples retrieved at OD600=1.5 (dark grey bars), and at OD600=2.0 (light grey bars). Data represent the average of tree individual experiments. Error bars are mean±SD.
To exemplify the actual efficacy of ajoene in inhibiting synthesis of one of the major virulence factors, the concentration of rhamnolipid present in the cultures grown for DNA array and RT-PCR where directly quantified by LC-MS. The production of rhamnolipids is initiated early in stationary phase co-ordinately regulated by the Rhl QS system encoded by the rhlA, rhlB and rhlC genes (PA3479, PA3478 and PA1131) [V. E. Wagner et al., J Bacteriol., 2003, 185, p. 2080-2095 and R. Rahim et al., Mol Microbiol., 2001, 40, p. 708-718]. Samples where therefore retrieved at an OD600 nm of 1.5 and 2.0 to monitor rhamnolipid production before and after the synthesis was fully initiated. […] This concentration therefore almost completely blocks rhamnolipid synthesis. (E,Z) ajoene having an E:Z ratio of 1:4 was used.

C=CCSSC=CC[S+]([O-])CC=C (stereo not shown) [ajoene, (E,Z)-4,5,9-trithiadodeca-1,6,11-triene-9-oxide]
rhamnolipid content compared to the untreated culture (20 μg/ml ajoene, OD600 nm of 2.0): approximately ⅓
rhamnolipid content (40 μg/ml ajoene): below the detection level
rhamnolipid present in the sample (80 μg/ml ajoene): almost no detectable rhamnolipid
rhamnolipid content (80 μg/ml ajoene): below the detection level

Source: US10603289B2, “Process for the manufacture of ajoene derivatives” (DANMARKS TEKNISKE UNIVERSITET, priority 2010, dated 2020)
